According to patent EP3623009A1, “MODULATION OF TRF1 FOR BRAIN CANCER TREATMENT” (Fundación del Sector Público Estatal Centro Nacional de …, priority 2018, dated 2020):
“Also recorded” adds a separate entry of the source.

Experiments:
p-AKT = p-AKT activation (p-AKT/AKT ratio, western blot) in h676 GSCs; assay type: cell-based, human; settings: 24h at 1 µM
Procedure: In order to check whether the novel compounds act independently of this pathway, the present inventors treated the cells for 24h at 1 µM concentration and checked p-AKT activation.

h543 GSCs [1] = assay: Sphere formation assay in h543 patient-derived GSCs; assay type: cell-based, human; settings: for sphere formation (dose-response): h543 GSCs, treated 7 days; for diameter of spheres / number of spheres: h543 patient-derived primary GSCs, compared to untreated controls
Procedure: (§1) Spheres were dissociated into single cells and seeded at a density of 50, 100, 200 and 400 cells/well in a 96 well plate. Neurosphere number was assessed after 7 days. Pictures were taken using Nikon Eclipse Ti-U microscope and neurosphere diameter was measured using NIS Elements BR software.

h676 GSCs [2] = assay: Sphere formation assay in h676 patient-derived GSCs; assay type: cell-based, human; settings: for sphere formation (dose-response): h676 GSCs, treated 7 days; for diameter of spheres / number of spheres: h676 patient-derived primary GSCs, compared to untreated controls
Procedure: as §1

h676 GSCs [3] = assay: Drug combination (synergy) sphere study in h676 GSCs; assay type: cell-based, human; settings: combinatorial matrix, spheres after 7 days, combination index
Procedure: Using this concentration as a reference point, the present inventors designed a combinatorial matrix using different concentrations of the compounds (e.g. 2x GI50, GI50 and ½ GI50) to study all the possible combinations. Combination index is calculated to establish if the combination is synergistic, additive or antagonistic (Fig. 50A).

U251 cells = assay: Sphere formation assay in U251 cells cultured with NSC media; assay type: cell-based, human; settings: seven days, compared to DMSO
Procedure: as §1
Finally, the present inventors checked if the three chemical compounds had the ability to reduce stemness in these cells. They cultured U251 cells with NSC media in order to obtain a suspension culture enriched in stem cells. The inventors performed a sphere formation assay with these cells treated with ETP-47228, ETP-47037 and ETP-50946 or DMSO for seven days. […] Of note, all these effects recapitulated what the present inventors observed with Trf1 genetic downregulation (See 2.2).

h676 GSCs [4] = assay: Subcutaneous xenograft of h676 patient-derived GSCs in nude mice; assay type: in vivo
Procedure: (§2) h676 and h543 patient-derived GSCs were dissociated using a 200 µl pipet and resuspended in NeuroCult medium and matrigel in a 1:1 ratio in a concentration of 1000 cell/µl. Nude mice (athymic Nude-Foxn1^nu/nu from Harlan) were injected subcutaneously with 100 µl of the cell preparation. ETP-47037 (or vehicle) was orally administrated at a concentration of 75 mg/kg 5 days per week (see also section 8), starting one week after cell injection. The vehicle consisted in 10% N-methyl-2-pyrrolidone (NMP, Sigma Aldrich) and 90% poly ethylene glycol (PEG, Sigma Aldrich). Mice were weighted and tumors were measured every 2-4 days. Tumor area was determined by the following equation: A = π * (a/2) * (b/2), were a and b are tumor length and width respectively.
(§3) For oral administration, ETP-47037 was dissolved in 10% N-methyl-2-pyrrolidone (NMP, Sigma Aldrich) and 90% polyethylene glycol (PEG, Sigma Aldrich) at a concentration of 75 mg/kg.
Next, the present inventors set to address whether TRF1 chemical inhibition was able to block tumor growth in vivo. […] Thus, the two independent primary GSCs (h676 and h543) were injected subcutaneously into nude mice. One week after GSC injection, mice received oral administration of the vehicle (NMP 10%, PEG 90%) as placebo or the ETP-47037 TRF1 inhibitor 5 days/week, every week until human endpoint, and tumors were continuously followed-up by caliper measurements (Fig. 42A).

h543 GSCs [5] = assay: Subcutaneous xenograft of h543 patient-derived GSCs in nude mice; assay type: in vivo; settings: oral 75 mg/kg 5 days/week from one week after injection, caliper, vs vehicle
Procedure: as §2, §3
Next, the present inventors set to address whether TRF1 chemical inhibition was able to block tumor growth in vivo. […] Thus, the two independent primary GSCs (h676 and h543) were injected subcutaneously into nude mice. […]

[6] = Tolerability and pathology of xenograft mice after long-term treatment; assay type: in vivo, nude mice
Procedure: as §2, with “respectively. […] Table1. Mice pathologies after long-term treatment with vehicle or ETP-47037” for “respectively.”

[7] = Brain blood barrier crossing (statement)
[8] = tested on: K-Ras^G12V-induced lung tumors; settings: Trf1 chemical inhibition; García-Beccaria et al. 2015; cited from earlier work
[9] = h676 xenograft, post-mortem, vs placebo

Compound	dependence on p-AKT (p-AKT)	synergic effect with the PI3Ki (ETP-47037) (h676 GSCs [3])	diameter of neurospheres (U251 cells)	number of neurospheres (U251 cells)	diameter of spheres (h543 GSCs [1])	number of spheres (h543 GSCs [1])	diameter of spheres (h676 GSCs [2])	number of spheres (h676 GSCs [2])	other results
COc1cc(Nc2ncc3c(n2)-c2ccc(Cl)cc2C(c2c(F)cccc2OC)=NC3)ccc1C(=O)O [Alisertib]	act independently of p-AKT	–	–	–	–	–	–	–	–
CC(=O)O[C@@]12CO[C@@H]1C[C@H](O)[C@@]1(C)C(=O)[C@H](O)C3=C(C)[C@@H](OC(=O)[C@H](O)[C@@H](NC(=O)OC(C)(C)C)c4ccccc4)C[C@@](O)([C@@H](OC(=O)c4ccccc4)[C@H]21)C3(C)C [Docetaxel, reference compound]	act independently of p-AKT	significant synergic effect	–	–	–	–	–	–	sphere formation (dose-response) (h543 GSCs [1]): most potent compounds; sphere formation (dose-response) (h676 GSCs [2]): most potent compounds
CS(=O)(=O)N1CCN(Cc2cc3c(N4CCOCC4)nc(-c4cnc(N)nc4)cn3n2)CC1 [ETP-47037]	–	–	strong reduction	strong reduction	significant drastic reduction	significant drastic reduction	significant drastic reduction	significant drastic reduction	proliferation marker Ki67 (h676 GSCs [4]; GSCs derived xenograft tumors, Ki67-positive cells per field, vs vehicle): reduces proliferation; γH2AX DNA damage marker (h676 GSCs [4]; GSCs derived xenograft tumors, γH2AX-positive cells per field, vs vehicle): induces DNA damage; decrease of TRF1 protein levels (h676 GSCs [4]; h676 xenograft tumors, immunofluorescence, vs placebo): 80%; tumor areas (h676 GSCs [4]; h676 xenograft, oral 75 mg/kg 5 days/week from one week after injection, caliper, vs vehicle): drastic reduction; tumor size (h676 GSCs [4]; [9]): striking decrease; tumor weight (h676 GSCs [4]; [9]): striking decrease; histological analysis of the tumors (h676 GSCs [4]; xenograft tumors after treatment): decreased cellularity in the tumors, together with necrotic areas, apoptotic bodies, compacted chromatin and fragmented DNA; tumor areas (h543 GSCs [5]): drastic reduction; Mice pathologies after long-term treatment ([6]; one cell per mouse (Mice 1 to 4)): Mice 1: dermatitis, mild widening of lymphatic vessels in intestine; also recorded: Mice 2: dermatitis; also recorded: Mice 3: dermatitis; also recorded: Mice 4: dermatitis; signs of sickness or morbidity ([6]; treated cohorts compared to the placebo group): did not detect any signs of sickness or morbidity; crossing the brain blood barrier [7]: not crossing the brain blood barrier; growth of already established lung adenocarcinomas [8]: effectively impair the growth; mouse and tissue viability [8]: without affecting mouse and tissue viability
Cc1cnc2c(N3CCOCC3)nc(-c3ccc(NC(=O)Nc4ccc(C(=O)N5CCN(C)CC5)cc4)cc3)cn12 [ETP-47228]	–	–	strong reduction	strong reduction	significant drastic reduction	significant drastic reduction	significant drastic reduction	significant drastic reduction	growth of already established lung adenocarcinomas [8]: effectively impair the growth; mouse and tissue viability [8]: without affecting mouse and tissue viability
NC(Cc1ccccc1)c1csc(Nc2ncccn2)n1 (centres unmarked) [ETP-50946]	–	–	strong reduction	strong reduction	significant drastic reduction	significant drastic reduction	significant drastic reduction	significant drastic reduction	–
CN1CC[C@H](c2c(O)cc(O)c3c(=O)cc(-c4ccccc4Cl)oc23)[C@H](O)C1 [Flavopiridol]	act independently of p-AKT	–	–	–	–	–	–	–	–
C[C@@H](Oc1cc(-n2cnc3ccc(CN4CCN(C)CC4)cc32)sc1C(N)=O)c1ccccc1C(F)(F)F [GSK461364]	p-AKT dependent	–	–	–	–	–	–	–	–
Nc1ccn([C@@H]2O[C@H](CO)[C@@H](O)C2(F)F)c(=O)n1 [Gemcitabine, reference compound]	act independently of p-AKT	significant synergic effect	–	–	–	–	–	–	sphere formation (dose-response) (h543 GSCs [1]): most potent compounds; sphere formation (dose-response) (h676 GSCs [2]): most potent compounds
COc1ccc(-c2ccc3c(N4CCOCC4)nc(N4C[C@@H](C)O[C@@H](C)C4)nc3n2)cc1CO [KU-0063794]	p-AKT dependent	–	–	–	–	–	–	–	–
O=C(Nc1ccc2[nH]nc(-c3ccncc3)c2c1)[C@@H]1CCN(CC(=O)N2CCN(c3ccc(-c4ncccn4)cc3)CC2)C1 [SCH772984]	act independently of p-AKT	significant synergic effect	–	–	–	–	–	–	–
